For 20 molecules, GI50 and TGI results are on record in PubChem BioAssay (NCI).

Common to all, as to experiment: inhibition of tumour cell growth, NCI panel, 48 h
Assay [1] deals with T-47D breast.
Assay [2] deals with HT29 colon.
Assay [3] relates to UACC-62 melanoma.
Assay [4] relates to SNB-19 CNS.
The test system of assay [5] is SN12C renal.
Assay [6] concerns HL-60(TB) leukemia.
Assay [7] has as its system LOX IMVI melanoma.
For assay [8], the system named is SF-268 CNS.
Assay [9] has as its system NCI/ADR-RES ovarian.
For assay [10], the system named is SR leukemia.

“And” between values parts separate entries of the source, which are not always exact repeats. Equal values may be shown once.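 A five-concentration, 48-hour dose response in 96-well plates underlies each endpoint, interpolated linearly between surrounding concentrations. GI50: concentration for 50% inhibition of growth. TGI denotes the concentration required for complete inhibition of growth.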

Turning to `CCCCCC(O)C(O)CCC[C@H](O)[C@H]1CC[C@H]([C@H]2CC[C@H]([C@H](O)CCCCCCCCCCCCC3=C[C@H](C)OC3=O)O2)O1` (stereo partly drawn), the GI50 was 2.12 µM in [1]; 4.61 µM in assay [4]; 13.6 µM in [5]; 1.76 µM in assay [7]; 12.4 µM in assay [8]; 2.75 µM in assay [9]. The TGI in assay [1] stood at 25.6 µM; in assay [2], 8.31 µM; in assay [3] it was 7.54 µM; in [4] it was 21.4 µM; in assay [5], 66.6 µM; in [6], 4.28 µM. Moreover, the TGI was 2.93 µM and 14.4 µM in assay [7]; 40.8 µM in assay [8]; 8.99 µM and 29.1 µM in assay [9].

As for `Cc1cc(-c2c(F)cc3c4nn([C@H]5CC[C@@H](N(C)C)CC5)c(=O)c-4cn(C4CC4)c3c2F)cc(C)n1`, the TGI in assay [1] was 2.76 µM; in [2], 1.1 µM; in assay [3], 0.255 µM and 0.754 µM; in assay [4] it was above 100 µM; in assay [10], 0.0268 µM; in assay [5] it was 0.0888 µM. Moreover, the TGI in [6] is 0.0322 µM and 0.235 µM; in [7], 0.571 µM; in assay [8], 0.151 µM and 0.89 µM. Also, the GI50 in [3] was 0.0468 µM; in assay [10] it was 0.002 µM; in assay [5], 0.0207 µM; in [6], 0.00306 µM; in assay [8], 0.0285 µM.

In the case of `CCCCC#Cc1c(I)n(C)c(=O)[nH]c1=O`, the GI50 was 1.7 µM in [1]; 2.27 µM in [2]; 3.39 µM in [3]; 14.6 µM in assay [4]; 0.895 µM in assay [10]; 13.2 µM in [5]. For the same molecule, the GI50 in assay [7] is 1.62 µM; in assay [8], 2.68 µM; in [9] it was 6.48 µM. The TGI in assay [1] came out at 6.96 µM; in [2], 5.08 µM; in [3] it was 12.2 µM; in assay [4] it was 29.1 µM; in [10], 2.09 µM; in assay [5], 26.5 µM. For the same molecule, the values for the TGI in assay [7], in assay [8] and in assay [9] were 2.97 µM, 7.64 µM and 19.5 µM, respectively.

Take `COc1ccc(C(=O)c2cc(C)c(OC)c(C)c2)c(OC)c1NC(C)=O`: the GI50 is 0.468 µM in assay [2]; 0.333 µM in assay [3]; 0.265 µM in assay [4]; 0.307 µM in [10]; 0.448 µM in [5]; 0.309 µM in [6]. The GI50 is 0.526 µM in assay [7], 1.82 µM in assay [8] and 0.131 µM in assay [9]. Moreover, the TGI in [2] was above 100 µM; in assay [3], above 100 µM; in assay [4] it was above 100 µM; in assay [10], above 100 µM; in assay [5] it was above 100 µM; in [6], 1.37 µM. Further, the TGI in assay [7] was above 100 µM; in assay [8], above 100 µM; in [9], 0.573 µM.

Regarding `Cc1ccc(-c2nc(/C=N/Nc3cc(C)nc4ccc(Cl)cc34)c(C)o2)cc1`, the GI50 is 1.8 µM in assay [1]; 0.664 µM in assay [2]; 1.77 µM in assay [3]; 1.84 µM in assay [4]; 0.339 µM in [10]; 1.79 µM in assay [5]. Further, the GI50 in [6] was 1.12 µM; in [9], 2.1 µM. For the same molecule, the TGI was 3.72 µM in assay [1]; 2.5 µM in assay [2]; 3.43 µM in [3]; 3.49 µM in assay [4]; 1.39 µM in [10]; 3.49 µM in [5]. The figures for the TGI in assay [6] and in assay [9] were 2.97 µM and 4.67 µM, respectively.

Take `CCCc1cc(=O)n2c(C(=O)Nc3ccc(F)cc3)c(C(=O)Nc3ccc(F)cc3)sc2n1`: the GI50 in assay [1] was 87 µM; in assay [2], 47.1 µM; in assay [3], 36.8 µM; in assay [4] it was 117 µM; in assay [10] it was 31.3 µM; in assay [6], above 160 µM. For the same molecule, the GI50 in [7] was 45.5 µM; in assay [8] it was 18.8 µM; in [9] it was 134 µM. The TGI in assay [1] is above 160 µM; in assay [2], above 160 µM; in assay [3] it was above 160 µM; in assay [4], above 160 µM; in [10] it was 88.1 µM; in assay [6], above 160 µM. The TGI was above 160 µM in assay [7], 95.6 µM in assay [8] and above 160 µM in [9].

`CCCCCCCCCCCCC(O)c1ccco1` (stereo not drawn): the GI50 in assay [1] was 35.5 µM; in [2], 35.8 µM; in [3], 17.7 µM; in assay [4], 25.9 µM; in assay [5], 17.1 µM; in [7], 17.9 µM. The GI50 in [8] was 19.1 µM; in assay [9], 16.4 µM. Also, the TGI in [1] was above 100 µM; in assay [2] it was above 100 µM; in assay [3], 32.4 µM; in [4], 70.7 µM; in assay [5], 31.7 µM; in assay [7], 32.2 µM. Also, the TGI was determined as 46 µM in assay [8] and 30.8 µM in assay [9].

Consider `O=C1CSC(c2ccccc2Cl)N1c1nnc(Cn2cnnc2)o1` (stereo not drawn), for which the GI50 was 3.76 µM in assay [1]; 3.35 µM in assay [2]; 7.55 µM in [3]; 3.51 µM in assay [10]; 23.1 µM in assay [5]; 2.69 µM in [6]. Further, the GI50 was 7.43 µM in assay [7], 13.9 µM in assay [8] and 6.64 µM in [9]. In addition, the TGI stood at 31.9 µM in assay [1]; 13.9 µM in assay [2]; 27.5 µM in [3]; 19.1 µM in assay [10]; 76.3 µM in [5]; 8.67 µM in assay [6]. Also, the TGI came out at 21 µM in [7], 93.7 µM in assay [8] and 83.4 µM in assay [9].

`COc1ccc(-c2ccc(/C=N/n3c(COc4ccccc4Cl)nn(CN4CCOCC4)c3=S)o2)c([N+](=O)[O-])c1`: the GI50 in assay [1] was 53.9 µM; in assay [2], 49.9 µM; in [3], 35 µM; in assay [4] it was 36.2 µM; in assay [5] it was 32 µM; in assay [6] it was 17 µM. Besides, the GI50 is 24 µM in assay [8] and 21.3 µM in [9]. The TGI in [1] was above 100 µM; in [2] it was above 100 µM; in assay [3] it was above 100 µM; in [4] it was above 100 µM; in assay [5] it was 96.7 µM; in assay [6] it was 39 µM. For the same molecule, the TGI is 63.4 µM in assay [8] and 49.2 µM in assay [9].

Take `N#Cc1ccccc1NC(=O)C(=O)C1NC(=S)NC1=O` (stereo not drawn): the TGI in assay [2], in assay [3], in assay [4], in assay [10], in assay [5] and in assay [6] was above 100 µM in each case. Also, the TGI in [7] and in [8] was above 100 µM each time.

Consider `O=C(CN(/C=C/C(=O)C(F)(F)F)c1ccc(Cl)cc1)c1ccc(Cl)c(Cl)c1`, for which the GI50 in assay [1] was 10.3 µM; in assay [2], 3.96 µM; in assay [3] it was 3.98 µM; in assay [4] it was 15.4 µM; in assay [10] it was 2.26 µM; in assay [5], 2.38 µM. The results for the GI50 in [7], in assay [8] and in [9] were 4.13 µM, 4.13 µM and 6.03 µM, respectively. Moreover, the TGI was 29.9 µM in assay [1]; above 100 µM in assay [2]; 16.1 µM in assay [3]; 33.6 µM in assay [4]; 6.96 µM in assay [10]; 5.43 µM in [5]. The TGI in assay [7] amounted to 16.6 µM; in [8], 16.4 µM; in assay [9], 19.7 µM.

For `CN1Cc2ccccc2/C=C\c2ccccc21`, the TGI in assay [1], in assay [2], in assay [3], in [4], in assay [5] and in assay [7] was above 100 µM throughout. In addition, the TGI in assay [8] and in assay [9] was above 100 µM throughout.

In the case of `CCN(CC)CC1CCCCN1CC(=O)N1CC(C)C(=O)Nc2ccccc21` (stereo not drawn), the TGI in [2], in assay [3], in [4], in [10], in assay [5] and in assay [6] was above 100 µM throughout. The TGI in [7] and in [8] was above 100 µM each time.

As to `CCC[CH2][Sn]([CH2]CCC)([S]C#N)[S]C#N`, the GI50 in assay [2] was 2.77 µM; in assay [3], 0.58 µM; in assay [4], 1.12 µM; in assay [10] it was 0.36 µM; in assay [5], 1.18 µM; in assay [6] it was 0.389 µM. Moreover, the GI50 was 0.85 µM in [7] and 0.802 µM in assay [8]. The TGI was 8.51 µM in assay [2]; 2 µM in [3]; 2.36 µM in assay [4]; 2.54 µM in assay [10]; 2.52 µM in assay [5]; 1.45 µM in assay [6]. Also, the TGI in assay [7] was found to be 2.47 µM; in [8], 2.26 µM.

As for `S=C1Cc2c(-c3ccc(Br)cc3)cc(-c3ccccc3)nc2-c2ccccc2N1`, the TGI in assay [1] was 7.03 µM; in [2], 5.81 µM; in [3], 5.45 µM; in assay [4], 3.52 µM; in assay [5], 2.97 µM; in [6], above 100 µM. Also, the TGI in [7] came to 12.6 µM; in assay [8] it was 6.19 µM; in assay [9] it was 4.43 µM.

In the case of `CC(C)N(Cc1ccc(CN(C(=O)CCl)C(C)C)cc1)C(=O)CCl`, the GI50 was 1.04 µM in assay [3]; 2.16 µM in assay [4]; 0.225 µM in [10]; 1.49 µM in assay [5]; 1.95 µM in assay [6]; 0.29 µM in assay [7]. In addition, the GI50 in assay [8] is 1.66 µM; in assay [9] it was 2.49 µM. The TGI in assay [3] was 2.97 µM; in [4], 5.4 µM; in assay [10] it was 0.838 µM; in assay [5], 3.71 µM; in [6], 4.96 µM; in assay [7] it was 1.05 µM. The values for the TGI in assay [8] and in [9] were 3.49 µM and 7.73 µM, respectively.

On to `COC1CC(O)C(OC(=O)c2ccccc2)C(C)O1` (stereo not drawn), for which the TGI in assay [2], in assay [3], in assay [4], in assay [10], in assay [5] and in assay [6] was above 100 µM in each case. Further, the TGI in assay [7] and in [8] was above 100 µM each time.

For `N#CC(C(=O)CCCC(=O)Nc1ccc(Cl)cc1Cl)c1ccccc1` (stereo not drawn), the TGI in assay [2], in [3], in assay [4], in assay [10], in assay [5] and in assay [6] was above 100 µM each time. The TGI in assay [7] and in assay [8] was above 100 µM in each case.

Take `CCOC(=O)c1cc(-c2ccc(-c3cc(C(=O)OCC)c(C#N)c(N)c3C#N)cc2)c(C#N)c(N)c1C#N`: the TGI in [2], in assay [3], in assay [4], in assay [10], in assay [5] and in assay [6] was above 100 µM each time. The TGI in [7] and in assay [8] was above 100 µM each time.

On to `O=C(NNc1ccc(Cl)cc1)C1CCC(CNS(=O)(=O)c2ccccc2Cl)CC1` (stereo not drawn), for which the GI50 in [3] is 2.81 µM; in assay [10], 10.2 µM; in assay [5], 14.7 µM; in [6], 4.25 µM; in [8] it was 8.31 µM; in [9], 15.5 µM. Further, the TGI is 9.64 µM in [3]; 66.4 µM in [10]; 50.9 µM in assay [5]; above 100 µM in assay [6]; above 100 µM in assay [8]; 50.7 µM in assay [9].
